For assay [1], the system named is MIA PaCa2 human pancreatic cancer cells with KRAS G12C mutation. As to the kind of experiment: Cell experiment: anti-proliferative activity, CellTiter-Glo, MIA PaCa2. It is filed as cell-based. The following applies: 5 days culture. The procedure:
(§1) This experiment is intended to verify that the compounds of the present invention have an inhibitory effect on the proliferation of NCI-H358 human non-small cell lung cancer cells with KRAS G12C mutation, MIA PaCa2 human pancreatic cancer cells with KRAS G12C mutation and wild-type A375 human malignant melanoma cells.
(§2) 40 μl of phosphate buffer was added to the peripheral wells of three 384-well microplates respectively, and 40 μl of cell suspension to be tested was added to the other wells of each plate respectively (plate 1: NCI-H358 cell suspension containing 500 NCI-H358 cells; plate 2: MIAPaCa2 cell suspension containing 300 MIAPaCa2 cells; plate 3: A375 cell suspension containing 300 A375 cells). The three cell plates were then placed in a carbon dioxide incubator and incubated overnight. Echo was used to perform a 3-fold gradient dilution of the compounds to be tested, and each compound was diluted with 10 concentration gradients (diluted from 50 μM to 0.003 μM), 100 nl of which was respectively added to the corresponding wells of the cell plates; after dosing, 40 μL of phosphate buffer was added to each well of rows A and P and columns 1 and 24, and then the cell plates were put back to the carbon dioxide incubator for culturing for 5 days. 20 μl of Promega CellTiter-Glo reagent per well was added to the cell plates, which was shaken at room temperature for 10 minutes in the dark to stabilize the luminescence signal. A PerkinElmer Envision multi-label analyzer was used for reading.
(§3) Data analysis: IC50 results were analyzed by GraphPad Prism 5.0 software […].
Background: ATP-based viability assays read luminescence as a measure of living cells.

Assay [2] concerns wild-type A375 human malignant melanoma cells. The assay can be described thus: Cell experiment: anti-proliferative activity, CellTiter-Glo, A375. To be noted: 5 days culture. It is filed as cell-based. The procedure:
as §1, §2, §3

The test system of assay [3] is NCI-H358 human non-small cell lung cancer cells with KRAS G12C mutation. The assay can be described thus: Cell experiment: anti-proliferative activity, CellTiter-Glo, NCI-H358. The following applies: 5 days culture. It is filed as cell-based. As for the experimental part: as §1, §2, §3
Assay [4] deals with human non-small cell lung cancer NCI-H358. As to the kind of experiment: In vivo drug efficacy test (2): subcutaneous xenograft tumor model. The arrangement: species or system BALB/c nude mice. The following applies: 100 mg/kg (0-6 days) + 50 mg/kg (7-20 days). The procedure: To evaluate the in vivo efficacy of the test compounds in a subcutaneous xenograft tumor model of human non-small cell lung cancer NCI-H358.
BALB/c nude mice, female, 6-8 weeks old, weighing 18-21 grams. A total of 100 were required. They were provided by Shanghai Lingchang Experimental Animal Co., Ltd ( ? ? ). NCI-H358 tumor cells were resuspended in PBS to prepare 0.1 mL (5×10^6) of cell suspension, which was inoculated subcutaneously on the right back of each mouse (5×10^6/mouse) to wait for tumor growth. When the average tumor volume reached about 150-200 mm^3, randomized grouping and administration were performed, and the administration dose was shown in Table 6. The diameter of the tumor was measured with vernier calipers twice a week. The formula for calculating the tumor volume is: V=0.5a×b^2, wherein a and b represent the long and short diameters of the tumor, respectively. The tumor suppressive effect of the compounds was evaluated by TGI (%). TGI (%) reflects the tumor growth inhibition rate. Calculation of TGI (%): TGI (%)=[(1−(average tumor volume at the end of administration in a treatment group−average tumor volume at the beginning of administration in the treatment group))/(average tumor volume at the end of treatment in the solvent control group−average tumor volume at the beginning of treatment in the solvent control group)]×100%.

[5] abbreviates: Homo sapiens, MIA PaCa-2, 120 h.

pIC50: −log10 of the molar value.

Turning to `C=CC(=O)N1CCN(c2nc(N3CC(N(CC)CC)C3)nc3c(=O)n(-c4c(C)ccc5[nH]ncc45)c(C(F)(F)F)cc23)CC1` [Example 37], the pIC50 (in general, the IC50 on a negative log10 scale, so that one unit is a factor of ten) in assay [1] (setting [5]) was 5.84; in assay [2] (Homo sapiens, A-375, 120 h), 4.71; in assay [3] (Homo sapiens, NCI-H358, 120 h), 5.98.

Regarding `C=CC(=O)N1CCN(c2ncnc3c(=O)n(-c4c(N)c(Cl)cc(Cl)c4F)c(C(F)(F)F)cc23)[C@@H](C)C1` (atropisomer, axis not shown) [Example 53], the pIC50 is 5.05 in assay [2] (Homo sapiens, A-375, 120 h) and 5.64 in assay [3].

For `C=CC(=O)N1CC2CN(c3ncnc4c(=O)n(-c5c(O)cccc5F)c(C(F)(F)F)cc34)CC21` (stereo not shown) [Example 18], the pIC50 is 5.54 in assay [2] (Homo sapiens, A-375, 120 h) and 5.14 in assay [3] (Homo sapiens, NCI-H358, 120 h).

As for `C=CC(=O)N1CCN(c2ncnc3c(=O)n(-c4c(C)ccc(N)c4C)c(C(F)(F)F)cc23)CC1` [Example 26], the negative-log IC50 (pIC50) in assay [2] (Homo sapiens, A-375, 120 h) is 4.49; in assay [3] (Homo sapiens, NCI-H358, 120 h), 4.88.

For the molecule `C=CC(=O)N1CCN(c2ncnc3c(=O)n(-c4c(F)ccc(Cl)c4N)c(C(F)(F)F)cc23)CC1` [Example 47], the pIC50 in assay [1] (setting [5]) was 6.09; in assay [2] (Homo sapiens, A-375, 120 h), 4.55; in assay [3] (Homo sapiens, NCI-H358, 120 h), 6.00.

As to `C=CC(=O)N1CCN(c2nc(N3CCOCC3)nc3c(=O)n(-c4c(O)cccc4F)c(C(F)(F)F)cc23)CC1` [Example 6], the pIC50 in assay [1] (setting [5]) is 4.90; in assay [2] (Homo sapiens, A-375, 120 h), 4.40; in assay [3] (Homo sapiens, NCI-H358, 120 h), 4.83.

Consider `C=CC(=O)N1CCN(c2nc(N3CC(N(CC)CC)C3)nc3c(=O)n(-c4c(O)c(Cl)cc(Cl)c4F)c(C(F)(F)F)cc23)CC1` [Example 46], for which the pIC50 was 5.75 in assay [1] (setting [5]); below 4.30 in assay [2] (Homo sapiens, A-375, 120 h); 5.71 in assay [3] (Homo sapiens, NCI-H358, 120 h).

For `C=CC(=O)N1CCN(c2nc(Oc3cnn(C)c3)nc3c(=O)n(-c4c(O)cccc4F)c(C(F)(F)F)cc23)CC1` [Example 15], the pIC50 was below 4.30 in assay [2] (Homo sapiens, A-375, 120 h) and 4.86 in assay [3] (Homo sapiens, NCI-H358, 120 h).

For the molecule `C=CC(=O)N1CCN(c2ncnc3c(=O)n(-c4c(N)c(Cl)cc(Cl)c4F)c(C(F)(F)F)cc23)[C@H](C)C1` [Example 52], the pIC50 is 5.13 in assay [2] and 7.22 in assay [3].

Turning to `C=CC(=O)N1CCN(c2nc(N3CC(N(CC)CC)C3)nc3c(=O)n(-c4c(N)ccc(Cl)c4F)c(C(F)(F)F)cc23)CC1` [Example 42], the “Tumor volume (day 20)” value in assay [4] came out at 191 mm^3. Further, the TGI (usually how far tumour growth fell short of that in controls) in assay [4] (day 20) came out at 95.51%. Moreover, the pIC50 is 7.70 in assay [1] (setting [5]); 5.34 in assay [2] (Homo sapiens, A-375, 120 h); 8.00 in assay [3] (Homo sapiens, NCI-H358, 120 h).

Take `C=CC(=O)N1CCN(c2nc(OC)nc3c(=O)n(-c4c(O)cccc4F)c(C(F)(F)F)cc23)CC1` [Example 11]: the pIC50 was 4.37 in assay [2] (Homo sapiens, A-375, 120 h) and 4.62 in assay [3] (Homo sapiens, NCI-H358, 120 h).

As to `C=CC(=O)N1CCN(c2nc(N3CC(N(CC)CC)C3)nc3c(=O)n(-c4c(O)cccc4F)c(C(F)(F)F)cc23)CC1` [Formate of example 8], the pIC50 in assay [1] (setting [5]) is 5.64; in assay [2] (Homo sapiens, A-375, 120 h) it was 4.41; in assay [3] (Homo sapiens, NCI-H358, 120 h), 5.85.

As to `C=CC(=O)N1CCN(c2ncnc3c(=O)n(-c4c(O)ccc5ccccc45)c(C(F)(F)F)cc23)CC1` [Trifluoroacetate of example 55], the pIC50 in assay [2] (Homo sapiens, A-375, 120 h) was at most 4.30; in assay [3] (Homo sapiens, NCI-H358, 120 h), 5.37.

Regarding `C=CC(=O)N1CCN(c2nc(N3CC(N(CC)CC)C3)nc3c(=O)n(-c4c(N)c(Cl)cc(Cl)c4F)c(C(F)(F)F)cc23)CC1` (atropisomer, axis not shown) [Example 44], the pIC50 in assay [1] is 5.53; in assay [2] (Homo sapiens, A-375, 120 h) it was 5.04; in assay [3], 5.44.

Take `C=CC(=O)N1CCN(c2ncnc3c(=O)n(-c4c(N)c(Cl)cc(Cl)c4F)c(C(F)(F)F)cc23)[C@H](C)C1` (atropisomer, axis not shown) [Example 51]: the pIC50 is 5.05 in assay [2] (Homo sapiens, A-375, 120 h) and 5.69 in assay [3].

In the case of `C=CC(=O)N1CCN(c2nc(N3CC(N(CC)CC)C3)nc3c(=O)n(-c4c(F)ccc(Cl)c4N)c(C(F)(F)F)cc23)CC1` [Example 41], the pIC50 in assay [1] (setting [5]) was 6.80; in assay [2] (Homo sapiens, A-375, 120 h), 4.91; in assay [3] (Homo sapiens, NCI-H358, 120 h), 6.82.

Turning to `C=CC(=O)N1CCN(c2nc(N3CC(N(CC)CC)C3)nc3c(=O)n(-c4c(C)ccc(N)c4C)c(C(F)(F)F)cc23)CC1` [Example 35], the pIC50 in assay [1] was 4.92.

Regarding `C=CC(=O)N1CCN(c2ncnc3c(=O)n(-c4c(O)c(Cl)cc(Cl)c4F)c(C(F)(F)F)cc23)CC1` [Example 50], the pIC50 in assay [1] (setting [5]) was 5.41; in assay [2] (Homo sapiens, A-375, 120 h), below 4.30; in assay [3] (Homo sapiens, NCI-H358, 120 h), 5.26.

Consider `C=CC(=O)N1CCN(c2nc(N3CC(N(CC)CC)C3)nc3c(=O)n(-c4c(N)cccc4F)c(C(F)(F)F)cc23)CC1` [Example 33], for which the pIC50 is 4.40 in assay [2] (Homo sapiens, A-375, 120 h) and 4.80 in assay [3] (Homo sapiens, NCI-H358, 120 h).

In assay [1] (setting [5]), `C=CC(=O)N1CCN(c2ncnc3c(=O)n(-c4c(C)cccc4O)c(C(F)(F)F)cc23)CC1` [Example 25] showed a pIC50 of 4.82.

Consider `C=CC(=O)N1CCN(c2nc(OC3CCN(C)CC3)nc3c(=O)n(-c4c(O)cccc4F)c(C(F)(F)F)cc23)CC1` [Example 12], for which the pIC50 in assay [2] (Homo sapiens, A-375, 120 h) is 5.00; in assay [3] (Homo sapiens, NCI-H358, 120 h), 4.85.

On to `C=CC(=O)N1CCN(c2ncnc3c(=O)n(-c4c(C)ccc5c4cnn5C(C)=O)c(C(F)(F)F)cc23)CC1` [Example 27], for which the negative-log IC50 (pIC50) is at most 4.30 in assay [2] (Homo sapiens, A-375, 120 h) and 4.68 in assay [3] (Homo sapiens, NCI-H358, 120 h).

In the case of `C=CC(=O)N1CCN(c2ncnc3c(=O)n(-c4c(F)cccc4OC(=O)N(C)C)c(C(F)(F)F)cc23)CC1` [Example 22], the pIC50 in assay [2] (Homo sapiens, A-375, 120 h) is 4.61; in assay [3] (Homo sapiens, 120 h), 5.29.

Take `C=CC(=O)N1CCN(c2ncnc3c(=O)n(-c4c(N)ccc(Cl)c4F)c(C(F)(F)F)cc23)CC1` [Example 48]: the pIC50 in assay [1] (setting [5]) is 6.89; in assay [2] (Homo sapiens, A-375, 120 h), 4.68; in assay [3] (Homo sapiens, NCI-H358, 120 h) it was 6.74.

As for `C=CC(=O)N1CCN(c2ncnc3c(=O)n(-c4c(F)cccc4OC)c(C(F)(F)F)cc23)CC1` [Example 1], the pIC50 in assay [2] (Homo sapiens, A-375, 120 h) is 4.75; in assay [3] (Homo sapiens, NCI-H358, 120 h), 5.28.

For `C=CC(=O)N1CCN(c2ncnc3c(=O)n(-c4c(C)ccc5[nH]ncc45)c(C(F)(F)F)cc23)CC1` [Example 28], the pIC50 in assay [2] (Homo sapiens, A-375, 120 h) was 4.44; in assay [3] (Homo sapiens, NCI-H358, 120 h) it was 5.00.

On to `C=CC(=O)N1CCN(c2nc(N3CC(N(CC)CC)C3)nc3c(=O)n(-c4c(N)c(Cl)cc(Cl)c4F)c(C(F)(F)F)cc23)CC1` (atropisomer, axis not shown) [Example 45], for which the values for the pIC50 in assay [1], in assay [2] and in assay [3] were 8.00, 5.20 and 8.00, respectively.

For the molecule `C=CC(=O)N1CCN(c2ncnc3c(=O)n(-c4c(N)c(Cl)cc(Cl)c4F)c(C(F)(F)F)cc23)[C@@H](C)C1` [Example 54], the values for the pIC50 in assay [2] and in assay [3] were 5.18 and 6.54, respectively.

As to `C=CC(=O)N1CCN(c2ncnc3c(=O)n(-c4c(N)cccc4F)c(C(F)(F)F)cc23)CC1` [Example 31], the pIC50 in assay [1] (setting [5]) is 5.90; in assay [2] (Homo sapiens, A-375, 120 h), 4.48; in assay [3] (Homo sapiens, NCI-H358, 120 h) it was 5.79.
